In brackets after ≈: the same amount, converted by molar mass. Read-outs that look alike come from different tables or passages of the source.
Experiments:
[1] = Preparation and stabilization of colloidal compositions of calcium fluoride; assay type: physicochemical; settings: alone or in combination with TRIMEA; precipitation from calcium chloride and sodium fluoride
[2] = Solubility of TRIMEA and DIMEB and complex formation between the two hosts in absence of a guest; assay type: physicochemical
Description: TRIMEA and DIMEB dissolve in water more than 33 g per 100 ml of water. The solubilities of both these compounds in water can be decreased by the addition of salts or by an increase of temperature. Thus, in aqueous solution of sodium sulfate (1 M), TRIMEA dissolved to the saturation concentration just of 0.4 mg/ml and DIMEB to 3.4 mg/ml. […] If a 1:1 complex between TRIMEA and DIMEB is assumed to form, the association constant of 700 [1/M] can be estimated for that complex, which is of the same order of magnitude as association constants of many complexes formed of guests and cyclodextrins.

[3] = Solubilization of FTS by TRIMEA and DIMEB: continuous variation and concentration dependence; assay type: physicochemical
[4] = Solubilization of FTS by hosts in sodium carbonate based buffer of pH 10; assay type: physicochemical
Description: (§1) no enhancement with two hosts. Water was used as the solvent for all data in the Table for Example 1. When a sodium carbonate based buffer of pH 10 was used as a solvent (conditions in which FTS is converted to its salt), the solubility of FTS in TRIMEA combined with DIMEB or in TRIMEA combined with Pitha methyl derivatives exceeds 60 mg per ml. Cooperativity, in this case, could not be calculated since, in these conditions, even solubilization by one component alone (DIMEB or Pitha methyl derivative) was over 60 mg per ml.

[5] = Solubilization of FTS by two different hosts in water (equilibration for a week, filtration, UV spectrophotometry); assay type: physicochemical; settings: for solubility at 1 week: aqueous host solution, aqueous with cosolvent or surfactant or cyclodextrin, thermodynamic from solid
Description: as §1

[6] = Solubilization of choline and sodium salts of FTS and other acidic drugs by cyclodextrins
Description: The solid obtained thereby was heated on a boiling water bath.
In this procedure, FTS (10 mg, 28 micromoles) was dissolved with warming in ethanol (20 microliters) and an aqueous solution of sodium hydroxide (30 microliters of 1 M NaOH carbonate free, i.e., 30 micromoles) was added. […] This clear solution then was added to the solution of Pitha methyl derivative (100 mg) in isotonic phosphate buffered saline (1 ml, pH 7.4).
In these investigations, choline salts were prepared by extraction with organic solvents of mixtures of sodium salts of the anion in question and choline chloride. There mixtures were either solid or in aqueous solutions.

physchem = settings: 1 week
From the text: A slight excess of FTS was equilibrated with water containing one host at 5% concentration or two hosts, each at 5% concentration, by rotation for a week. The suspension was then filtered through a millipore filter and the concentration of FTS in filtrate determined by ultraviolet spectrophotometry. […] The cooperativity index reflects the improvement in solubility obtained with each combination of two hosts over the solubility obtained with each of the individual hosts involved in the two-host system. It is computed by dividing the obtained solubility with two hosts by the sum of the individual solubilities obtained with each component.

[7] = Solubilization of FTS by TRIMEA and DIMEB: continuous variation and concentration dependence; assay type: physicochemical; settings: water
From the text: The optimum ratio of hosts was established by the continuous variation method, using techniques of Example 1 and water as a solvent. The results in Table A for Example 3 indicate that the optimum solubility is obtained when both hosts are in about equal concentrations. […]

insulin = insulin (Homo sapiens, UniProt P01308); assay: Stabilization and solubilization of insulin by highly methylated cyclodextrins; assay type: physicochemical; settings: cyclodextrins at 2 or 4% in phosphate buffered solution, insulin 1 mg/ml, final pH less than 6
insulin, sequence (P01308 25-54 limits assumed, species assumed): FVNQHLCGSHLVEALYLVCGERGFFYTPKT
insulin, sequence (P01308 90-110 limits assumed, species assumed): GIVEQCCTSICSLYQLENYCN

[8] = hosts Alpha Cyclodextrin - DIMEB, each 5% in water
[9] = hosts Alpha Cyclodextrin - TRIMEB, each 5% in water
[10] = hosts Beta Cyclodextrin - TRIMEB, each 5% in water
[11] = hosts DIMEB - PERM HPBCD, each 5% in water
[12] = hosts DIMEB - TRIMEB, each 5% in water
[13] = hosts DIMEB - TRIMEG, each 5% in water
[14] = hosts G2 - DIMEB, each 5% in water
[15] = hosts G2 - TRIMEB, each 5% in water
[16] = hosts G2 - TRIMEG, each 5% in water
[17] = hosts HPACD - HPBCD, each 5% in water
[18] = hosts Pitha Methyl 258 - TRIMEB, each 5% in water
[19] = hosts Pitha Methyl 322 - DIMEB, each 5% in water
[20] = hosts TRIMEA - DIMEB, each 5% in water
[21] = hosts TRIMEA - G2, each 5% in water
[22] = hosts TRIMEA - Pitha Methyl 258, each 5% in water

Question: What does the source list for `COC[C@H]1O[C@@H]2O[C@H]3[C@H](O)[C@@H](OC)[C@@H](O[C@H]4[C@H](O)[C@@H](OC)[C@@H](O[C@H]5[C@H](O)[C@@H](OC)[C@@H](O[C@H]6[C@H](O)[C@@H](OC)[C@@H](O[C@H]7[C@H](O)[C@@H](OC)[C@@H](O[C@H]8[C@H](O)[C@@H](OC)[C@@H](O[C@H]1[C@H](O)[C@H]2OC)O[C@@H]8COC)O[C@@H]7COC)O[C@@H]6COC)O[C@@H]5COC)O[C@@H]4COC)O[C@@H]3COC` [DIMEB]?
Answer: preparation and stabilization of colloidal compositions of calcium fluoride [1]: effective; saturation concentration ([2]; aqueous solution of sodium sulfate (1 M)): 3.4 mg/mL

Question: For `CC(C)=CCCC(C)=CCCC(C)=CCSc1ccccc1C(=O)O` [FTS, S-farnesylthiosalicylic acid], which “FTS” value ([3]; TRIMEA 2 % w/w, DIMEB 2 % w/w) is on record?
Answer: Its value is 2.13 mg/mL.

Question: And the “FTS” value ([3]; TRIMEA 5 % w/w, DIMEB 5 % w/w)?
Answer: The value was 8.53 mg/mL.

Question: What about the “FTS” value ([3]; TRIMEA 10 % w/w, DIMEB 10 % w/w) of the same molecule?
Answer: The value was 15.86 mg/mL.

Question: What about the “FTS (mg/ml)” value ([3]; TRIMEA 15 % w/w, DIMEB 15 % w/w) of the same molecule?
Answer: Its value is “(>than 17.17, all dissolved) mg/ml”.

Question: And the “solubility of FTS” value ([4]; TRIMEA combined with DIMEB, sodium carbonate based buffer of pH 10 (FTS converted to its salt))?
Answer: Its value is “exceeds 60 mg per ml”.

Question: And the “solubility of FTS” value ([4]; TRIMEA combined with Pitha methyl derivatives, sodium carbonate based buffer of pH 10)?
Answer: The value was “exceeds 60 mg per ml”.

Question: What about the solubility at 1 week [5, 8] of the same molecule?
Answer: The solubility at 1 week was 1400 µg/mL (≈ 3.9 mM).

Question: What about the solubility at 1 week [5, 9] of the same molecule?
Answer: The solubility at 1 week was 100 µg/mL (≈ 0.279 mM).

Question: And the solubility at 1 week [5, 10]?
Answer: Its solubility at 1 week is 26 µg/mL (≈ 0.0725 mM).

Question: What about the solubility at 1 week [5, 11] of the same molecule?
Answer: The solubility at 1 week was 1100 µg/mL (≈ 3.07 mM).

Question: What about the solubility at 1 week [5, 12] of the same molecule?
Answer: The solubility at 1 week was 2600 µg/mL (≈ 7.25 mM).

Question: And the solubility at 1 week [5, 13]?
Answer: Its solubility at 1 week is 1400 µg/mL (≈ 3.9 mM).

Question: And the solubility at 1 week [5, 14]?
Answer: Its solubility at 1 week is 2400 µg/mL (≈ 6.69 mM).

Question: And the solubility at 1 week [5, 15]?
Answer: The solubility at 1 week was 1100 µg/mL (≈ 3.07 mM).

Question: What about the solubility at 1 week [5, 16] of the same molecule?
Answer: Its solubility at 1 week is 1000 µg/mL (≈ 2.79 mM).

Question: And the solubility at 1 week [5, 17]?
Answer: The solubility at 1 week was 52 µg/mL (≈ 0.145 mM).

Question: What about the solubility at 1 week [5, 18] of the same molecule?
Answer: Its solubility at 1 week is 950 µg/mL (≈ 2.65 mM).

Question: What about the solubility at 1 week [5, 19] of the same molecule?
Answer: Its solubility at 1 week is 1300 µg/mL (≈ 3.63 mM).

Question: What about the solubility at 1 week [5, 20] of the same molecule?
Answer: The solubility at 1 week was 6600 µg/mL (≈ 18.4 mM).

Question: What about the solubility at 1 week [5, 21] of the same molecule?
Answer: Its solubility at 1 week is 3900 µg/mL (≈ 10.9 mM).

Question: And the solubility at 1 week [5, 22]?
Answer: Its solubility at 1 week is 5700 µg/mL (≈ 15.9 mM).

Question: What about the “Cooperativity (observed ÷ Σ components)” value [5, 8] of the same molecule?
Answer: The value was 1.0.

Question: And the “Cooperativity (observed ÷ Σ components)” value [5, 9]?
Answer: Its value is 0.6.

Question: And the “Cooperativity (observed ÷ Σ components)” value [5, 10]?
Answer: Its value is 0.2.

Question: And the “Cooperativity (observed ÷ Σ components)” value [5, 11]?
Answer: The value was 0.8.

Question: What about the “Cooperativity (observed ÷ Σ components)” value [5, 12] of the same molecule?
Answer: The value was 1.8.

Question: What about the “Cooperativity (observed ÷ Σ components)” value [5, 13] of the same molecule?
Answer: Its value is 1.0.

Question: What about the “Cooperativity (observed ÷ Σ components)” value [5, 14] of the same molecule?
Answer: The value was 1.0.

Question: What about the “Cooperativity (observed ÷ Σ components)” value [5, 15] of the same molecule?
Answer: The value was 1.0.

Question: What about the “Cooperativity (observed ÷ Σ components)” value [5, 16] of the same molecule?
Answer: Its value is 1.0.

Question: And the “Cooperativity (observed ÷ Σ components)” value [5, 17]?
Answer: The value was 0.3.

Question: What about the “Cooperativity (observed ÷ Σ components)” value [5, 18] of the same molecule?
Answer: The value was 1.4.

Question: And the “Cooperativity (observed ÷ Σ components)” value [5, 19]?
Answer: Its value is 0.7.

Question: And the “Cooperativity (observed ÷ Σ components)” value [5, 20]?
Answer: The value was 4.1.

Question: What about the “Cooperativity (observed ÷ Σ components)” value [5, 21] of the same molecule?
Answer: The value was 3.0.

Question: And the “Cooperativity (observed ÷ Σ components)” value [5, 22]?
Answer: Its value is 9.4.

Question: What about the “solubilization of choline salts” value [6] of the same molecule?
Answer: Its value is “easily solubilized”.

Question: What about the “single, highly methylated cyclodextrin host outperformed the current standard” value (physchem) of the same molecule?
Answer: The value was “over 2 times”.

Question: And the “FTS” value ([7]; TRIMEA 0 % w/w, DIMEB 5 % w/w)?
Answer: The value was 1.55 mg/mL.

Question: And the “FTS” value ([7]; TRIMEA 1 % w/w, DIMEB 4 % w/w)?
Answer: Its value is 2.29 mg/mL.

Question: What about the “FTS” value ([7]; TRIMEA 2 % w/w, DIMEB 3 % w/w) of the same molecule?
Answer: Its value is 2.66 mg/mL.

Question: And the “FTS” value ([7]; TRIMEA 3 % w/w, DIMEB 2 % w/w)?
Answer: Its value is 2.79 mg/mL.

Question: And the “FTS” value ([7]; TRIMEA 4 % w/w, DIMEB 1 % w/w)?
Answer: The value was 2.33 mg/mL.

Question: What about the “FTS” value ([7]; TRIMEA 5 % w/w, DIMEB 0 % w/w) of the same molecule?
Answer: Its value is 0.19 mg/mL.

Question: Which “stabilizer of the dissolved insulin” value (insulin) does the source give for `COC[C@H]1O[C@@H]2O[C@@H]3[C@@H](OC)[C@@H](OC)[C@@H](O[C@@H]4[C@@H](OC)[C@@H](OC)[C@@H](O[C@@H]5[C@@H](OC)[C@@H](OC)[C@@H](O[C@@H]6[C@@H](OC)[C@@H](OC)[C@@H](O[C@@H]7[C@@H](OC)[C@@H](OC)[C@@H](O[C@@H]1[C@@H](OC)[C@H]2OC)O[C@@H]7COC)O[C@@H]6COC)O[C@@H]5COC)O[C@@H]4COC)O[C@@H]3COC` [TRIMEA] here?
Answer: The value was “more effective stabilizer of the dissolved insulin than DIMEB or TRIMEB”.

Question: What about the saturation concentration [2] of the same molecule?
Answer: The saturation concentration was 0.4 mg/mL.

— patent US6576261B1, “Potentiation of inclusion complex formation of cyclodextrin derivatives” (priority 1999, dated 2003)
